Measured values: patent US6444668B1 (Wyeth, priority 1999, dated 2002)
Values joined by “and” are separate entries in the source; they are usually repeats but may differ in a detail not shown here. Identical values can stand only once. Like-named read-outs stand apart in the source and are kept apart here. Blank lines part the entries; values can stand above or below the molecule they belong to.

What was measured:
[1] = test system: rat uterine decidualization; assay: Rat decidualization assay; assay type: in vivo; settings: for Decidualization IC50: half-maximal decrease in EC50 progesterone induced decidual response
Experimental: 1. Rat Decidualization Assay
b. Animals (RACUC Protocol #5002)
The animals are treated once daily for seven days.
Uteri are removed and trimmed of fat.
Body weight: Mean total animal body weight (default-kg)
Decidual response: [(D-C)/C]x100%

[2] = test system: T47D cells; assay: T47D cell proliferation assay (BrdU incorporation); assay type: cell-based; settings: agonist mode, individual studies, read-out: Estimated EC50, BrdU incorporation
Experimental: 3. T47D Cell Proliferation Assay
The objective of this assay is the determination of progestational and antiprogestational potency by using a cell proliferation assay in T47D cells. A compound's effect on DNA synthesis in T47D cells is measured.
DMEM:F12 (1:1) (GIBCO, BRL) supplemented with 10% (v/v) fetal bovine serum (not heat-inactivated), 100U/ml penicillin, […] streptomycin, and 2 mM GlutaMax (GIBCO, BRL).
Minimum Essential Medium (MEM) (#51200-038GIBCO, BRL) phenol red-free supplemented with 0.5% charcoal stripped fetal bovine serum, 100U/ml penicillin, 200 mg/ml streptomycin, and 2 mM GlutaMax (GIBCO, BRL).
Stock T47 D cells are maintained in growth medium. For BrdU incorporation assay, cells are plated in 96-well plates (Falcon, Becton Dickinson Labware) at 10,000 cells/well in growth medium. […]
At the end of BrdU labeling, the medium is removed and BrdU incorporation is measured using a cell proliferation ELISA kit (#RPN 250, Amersham Life Science) according to manufacturer's instructions. […] Then 25 μl of 1 M sulfuric acid is added to each well to stop color reaction and optical density is read in a plate reader at 450 nm within 5 min.
Square root-transformed data are used for analysis of variance and nonlinear dose response curve fitting for both agonist and antagonist modes. […] EC50 or IC50 values are calculated from the retransformed values. […]

[3] = biological target: T1, human PR (Homo sapiens, UniProt P06401); assay: PRE-luciferase assay in CV-1 cells; assay type: cell-based; settings: PR antagonist; CV-1 cells co-transfected with human PR and PRE-luciferase; in the presence of 3 nM progesterone; read-out: hPR CV-1 IC50
T1 construct: expressed in transfected cells; host or cells: CV-1 cells (electroporation)
T1 sequence (P06401 1-933): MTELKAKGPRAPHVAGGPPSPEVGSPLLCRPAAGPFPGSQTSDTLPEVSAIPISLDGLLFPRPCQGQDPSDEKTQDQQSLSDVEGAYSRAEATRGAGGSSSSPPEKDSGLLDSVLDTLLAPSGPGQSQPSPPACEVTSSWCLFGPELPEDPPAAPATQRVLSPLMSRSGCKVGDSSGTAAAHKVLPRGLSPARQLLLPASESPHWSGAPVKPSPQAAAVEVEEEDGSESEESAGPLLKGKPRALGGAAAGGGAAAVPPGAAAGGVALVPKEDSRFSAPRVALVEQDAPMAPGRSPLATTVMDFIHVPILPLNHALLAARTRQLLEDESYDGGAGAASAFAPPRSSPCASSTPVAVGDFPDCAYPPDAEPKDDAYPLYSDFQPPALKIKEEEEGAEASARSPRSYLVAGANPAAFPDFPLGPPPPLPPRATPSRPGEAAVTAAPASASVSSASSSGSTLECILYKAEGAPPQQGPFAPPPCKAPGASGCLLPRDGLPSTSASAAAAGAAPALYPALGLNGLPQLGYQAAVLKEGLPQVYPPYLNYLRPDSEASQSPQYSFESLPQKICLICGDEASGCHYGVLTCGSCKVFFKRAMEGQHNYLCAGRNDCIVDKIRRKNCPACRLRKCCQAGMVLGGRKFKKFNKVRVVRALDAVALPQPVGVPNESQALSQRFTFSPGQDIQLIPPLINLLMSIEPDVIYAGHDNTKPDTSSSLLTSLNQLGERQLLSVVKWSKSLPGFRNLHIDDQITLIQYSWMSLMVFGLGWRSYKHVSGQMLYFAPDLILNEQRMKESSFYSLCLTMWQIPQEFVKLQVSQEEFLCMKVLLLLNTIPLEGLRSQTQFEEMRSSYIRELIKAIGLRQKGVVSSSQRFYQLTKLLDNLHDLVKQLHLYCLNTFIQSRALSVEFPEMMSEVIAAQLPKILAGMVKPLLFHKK
Experimental: 2. PRE-luciferase Assay in CV-1 to Cells
The object of this assay is to determine a compound's progestational or antiprogestational potency based on its effect on PRE-luciferase reporter activity in CV-1 cells co-transfected with human PR and PRE-luciferase plasmids. The materials methods used in the assay are as follows.
The growth medium was as follows: DMEM (BioWhittaker) containing 10% (v/v) fetal bovine serum (heat inactivated), 0.1 mM MEM non-essential amino acids, 100U/ml penicillin, […] streptomycin, and 2 mM GlutaMax (GIBCO, BRL). The experimental medium was as follows: DMEM (BioWhittaker), phenol red-free, containing 10% (v/v) charcoal-stripped fetal bovine serum (heat-inactivated), 0.1 mM MEM non-essential amino acids, 100U/ml penicillin […] streptomycin, and 2 mM GlutaMax (GIBCO, BRL).
b. Cell Culture, Transfection, Treatment, and Luciferase Assay
Stock CV-1 cells are maintained in growth medium Co-transfection is done using 1.2×10^7 cells, 5 mg pLEM plasmid with hPR-B inserted at Sph1 and BamH1 sites, 10 mg pGL3 plasmid with two PREs upstream of the luciferase sequence, and 50 mg sonicated calf thymus DNA as carrier DNA in […]. […] Luciferase activity is measured using luciferase reagents from Promega.
Each treatment consists of at least 4 replicates. […] EC50 or IC50 values are calculated from the retransformed values.

[4] = dose 3 mg/kg, read-out: Decidualization, percentage inhibition at the dose specified
[5] = read-out: Decidualization, percentage inhibition at the dose specified

melting point: 182 to 183 °C
SMILES: CC1(C)OC(=O)Nc2ccc(-c3cc(F)cc(Br)c3)cc21 [Compound 8, 6-(3-Bromo-5-fluorophenyl)-4,4-dimethyl-1,4-dihydrobenzo[d][1,3]oxazin-2-one]
inhibition at 3 mg/kg [1, 4]: 50%

melting point: 243 to 245 °C
SMILES: N#Cc1ccc(-c2ccc3c(c2)C2(CCCCC2)OC(=O)N3)s1 [Compound 11, 5-(1,2-Dihydro-2-oxospiro[4H-3,1-benzoxazine-4,1-cyclohexan]-6-yl)-2-thiophenecarbonitrile]
inhibition at 10 mg/kg ([1]; dose 10 mg/kg, read-out: Decidualization, percentage inhibition at the dose specified): 50%

EC50 [2]: 0.017 nM and 0.014 nM and 0.019 nM
SMILES: C[C@H](O)C(=O)[C@@]1(C)CC[C@H]2[C@@H]3CCC4=CC(=O)CCC4=C3CC[C@@]21C [Trimegestone]

melting point: 250 to 252 °C
Decidualization IC50 [1]: 3 mg/kg
SMILES: N#Cc1cc(F)cc(-c2ccc3c(c2)C(C2CC2)(C2CC2)OC(=O)N3)c1 [Compound 15, 3-(4,4Dicyclopropyl-2-oxo-1,4-dihydro-2H-benzo[d][1,3]oxazin-6-yl)5-fluoro-benzonitrile]

EC50 ([2]; Homo sapiens, T47D): 0.019 nM
Estimated EC50 for uterine wet weight (decidual response) ([1]; s.c., individual studies): 0.42 mg/kg and 0.39 mg/kg (2×)
SMILES: CC(=O)O[C@]1(C(C)=O)CC[C@H]2[C@@H]3C[C@H](C)C4=CC(=O)CC[C@]4(C)[C@H]3CC[C@@]21C [MPA, medroxyprogesterone acetate, reference compound]

The remaining lines, values behind:

SMILES: CC1(C)OC(=O)Nc2ccc(-c3cccc(F)c3)cc21 [Compound 3, 6-(3-Fluoro-phenyl)-4,4-dimethyl-1,4-dihydro-benzo[d][1,3]-oxazin-2-one]
melting point: 181 to 182 °C
inhibition at 3 mg/kg [1, 4]: 80%

SMILES: CC1(C)OC(=O)Nc2ccc(-c3cc(C#N)ccc3F)cc21 [Compound 5, 3-(4,4-Dimethyl-2-oxo-1,4-dihydro-2H-benzo[d][1,3]oxazin-6-yl)-4-fluoro-benzonitrile]
melting point: 229 to 230 °C
inhibition at 1 mg/kg [1, 5]: 60%

SMILES: CC1(C)OC(=O)Nc2ccc(-c3cc(F)cc([N+](=O)[O-])c3)cc21 [Compound 6, 6-(3-Fluoro-5-nitro-phenyl)-4,4-dimethyl-1,4dihydro-benzo[d][1,3]oxazin-2-one]
melting point: 260 to 261 °C
inhibition at 1 mg/kg [1, 5]: 50%

SMILES: CC1(C)OC(=O)Nc2ccc(-c3cc(Cl)cc(Cl)c3)cc21 [Compound 4, 6-(3,5dichloro-phenyl)-4,4-dimethyl-1,4-dihydrobenzo-[d][1,3]oxazin-2-one]
melting point: 245 to 246 °C
inhibition at 1 mg/kg [1, 5]: 60%

SMILES: CC1(C)OC(=O)Nc2ccc(-c3cncc(Br)c3)cc21 [Compound 16, 6-(5-Bromo-pyridin-3-yl)-4,4-dimethyl-1,4-dihydro-benzo[d][1,3]oxazin-2-one]
melting point: 211 to 212 °C
inhibition at 3 mg/kg [1, 4]: 50%

SMILES: CC1(C)OC(=O)Nc2ccc(-c3coc(C#N)c3)cc21 [Compound 7, 4-(44-Dimethyl-2-oxo-1,4-dihydro-2H-benzo[d][1,3]oxazin-6-yl)-furan-2-carbonitrile]
Decidualization, percentage inhibition at the dose specified ([1]; dose 3 mg/kg): 75% @ 3
IC50 [3]: 30 nM

SMILES: CC1(C)OC(=O)Nc2ccc(-c3cc(F)cc(C(F)(F)F)c3)cc21 [Compound 2, 6-(3-Fluoro-5-trifluoromethyl-phenyl)-4,4-dimethyl-1,4-dihydro-benzo[d][1,3]oxazin-2-one]
melting point: 207 to 208 °C
inhibition at 1 mg/kg [1, 5]: 50%

SMILES: CC1(C)OC(=O)Nc2ccc(-c3cccc(Br)c3)cc21 [Compound 13]
melting point: 174 to 175 °C
Decidualization IC50 [1]: 3 mg/kg

SMILES: CC1(C)OC(=O)Nc2ccc(-c3ccc(C#N)s3)cc21 [Compound 12, 5-(4,4-Dimethyl-2-oxo-1,4-dihydro-2H-benzo[d][1,3]oxazin-6-yl)-thiophene-2-carbonitrile]
melting point: 264 to 266 °C
Decidualization IC50 [1]: 3.34 ± 0.22 mg/kg
